{"source": "patent US11992013B2", "about": "“Feral hog toxicant” (priority 2019, dated 2024)", "key": {"[1]": {"molecular_target": "methemoglobin reductase (MR)", "conditions": "MR inhibitor; cited from earlier work"}, "[2]": {"system": "methemoglobin reductase (MR)", "assay": "Inhibition of methemoglobin reductase (MR) by luteolin", "format": "biochemical", "conditions": "assuming about 65 mL blood per kilogram body mass in the pig; no experimental data", "excerpt": "An optional embodiment enhances the effective of sodium nitrite by incorporating the flavonoid luteolin into a bait. Luteolin is found in botanical sources including celery, broccoli, green pepper, parsley, thyme, dandelion, perilla, chamomile, carrots, olive oil, peppermint, rosemary, oranges and other citrus, oregano, and certain palm seeds. The mechanism of sodium nitrite toxicity is to oxidize hemoglobin in the blood to methemoglobin, converting the iron atom from the ferrous form to the ferric form. Methemoglobin has a poor ability to transport oxygen to cells. Methemoglobin is naturally present in mammalian blood at 1-2% of total hemoglobin, a level that is ordinarily tempered by the enzyme methemoglobin reductase (MR). […] Because hogs have a poor ability to detoxify methemoglobin build-up, they are inherently more prone to developing high concentrations of methemoglobin upon exposure to sodium nitrite, which can quickly lead to death. In an optional embodiment, this physiology is further exploited by incorporating MR inhibitors into the bait, thus facilitating control of feral hogs while releasing less total nitrite into the environment. Luteolin is a highly-potent, commercially-available, naturally-occurring, tasteless MR inhibitor. Adding small amounts of luteolin to a nitrite-containing bait will reduce a hog's ability to detoxify methemoglobin. […]"}, "[3]": {"conditions": "neutral or acidic pH; cited from earlier work"}, "adult hogs": {"system": "adult hogs", "conditions": "cited from earlier work"}, "feral hogs": {"system": "feral hogs", "assay": "Vomiting after toxicant baits are consumed", "format": "in vivo, Sus scrofa", "conditions": "preliminary results", "excerpt": "Another difficulty of using sodium nitrite as a toxicant is that feral hogs can sometimes vomit the baits. The acidic decomposition of sodium nitrite in gastric juices can lead to the release of noxious, gaseous by-products that can induce vomiting. This tendency can be counteracted by incorporating into the bait antiemetic compounds, antacid compounds, or both. Antacids include such compounds as sodium carbonate, sodium bicarbonate, calcium carbonate, magnesium hydroxide, magnesium carbonate, potassium carbonate, amines (e.g. from fish), and potassium bicarbonate. Antacids such as sodium carbonate also help maintain a higher pH level before the bait is consumed. Then after consumption the antacids can help neutralize gastric acid, both inhibiting the breakdown of sodium nitrite in vivo, and also helping to reduce vomiting. […] Anti-emetics can also be employed, for example taste-free ginger extracts containing gingerols. […] Gingerols have the same mechanism of action as drugs such as Zofran (ondansetron), which are prescribed in humans for the treatment of severe, chemotherapy-induced nausea. Other anti-emetics known in the art may also be used."}}, "data": [{"compound": "O=c1cc(-c2ccc(O)c(O)c2)oc2cc(O)cc(O)c12", "note": "[luteolin]", "values": [{"measurement": "IC50", "setting": "[1]", "value": "~110", "unit": "nM"}, {"measurement": "amount of luteolin needed for 50% inhibition of the MR enzyme", "setting": "[2]", "value": "~2 micrograms per kilogram body mass"}, {"measurement": "water solubility", "setting": "[3]", "value": "poorly soluble"}]}, {"compound": "O=NO", "note": "[sodium nitrite]", "values": [{"measurement": "LD90", "setting": "adult hogs", "value": "about 189 mg/kg"}]}, {"compound": "O=C([O-])[O-].[Na+].[Na+]", "note": "[sodium carbonate]", "values": [{"measurement": "effect on vomiting after toxicant baits are consumed", "setting": "feral hogs", "value": "effective in reducing vomiting"}]}]}
